Laboratory results reported in patent US4204990A, “Somatostatin analogues” (American Home Products Corporation, priority 1978, dated 1980).
Structures can show the parent of a compound that is named as a salt. Positions of bridges follow the written chain, without caps; N, C: chain ends. Non-standard residues stand in square brackets, D forms with d. Residues, ends and D or L forms follow the SMILES beside them.

Tests used:
Format in all cases: in vivo, rat
growth hormone [1] = experiment: Arginine-stimulated growth hormone level in Nembutal-anaesthetised rats after subcutaneous test compound; settings: for GH: p<0.01
Procedure: (§1) Albino male rats were administered Nembutal intraperitoneally at a dose of 50 milligrams per kilogram. Fifteen minutes later a subcutaneous injection of the test compound or physiological saline was administered. Ten minutes later 0.5 milliliters of arginine (300 milligrams per milliliter, pH 7.2) is injected into the heart. Five minutes after receipt of the arginine the rats are decapitated and blood is collected into trasylol-EDTA. An appropriate aliquot was assayed for growth hormone, insulin and glucagon.

insulin = experiment: Arginine-stimulated insulin level in Nembutal-anaesthetised rats after subcutaneous test compound; settings: p<0.01
Procedure: as §1

glucagon = experiment: Arginine-stimulated glucagon level in Nembutal-anaesthetised rats after subcutaneous test compound
Procedure: as §1

growth hormone [2] = experiment: Duration of activity: plasma growth hormone by radioimmunoassay at hours after SC injection; settings: for GH (duration of activity) / GH (duration of growth hormone suppression): 1,000 μg/kg
Procedure: The animals were kept in separate cages. Twenty minutes before the end of the test, 50 mg/kg Nembutal® was administered to all the rats (i.p.). […] Plasma was separated and growth hormone concentration was determined by radio immunoassay. Comparisons between the control and experimental growth hormone values were evaluated by the Student "t" test and statistical significance at the 0.05 level or lower was used as the index of activity. Based upon that test [Brazeau et al., Science, 170, 77 (1973)], the prolonged growth hormone suppression by the compounds of this invention was established. The data obtained for the product of Example 1, illustrative of the duration of activity of the other compounds of this invention, is as follows: […]

[3] = dose 2,000 μg/kg, control 220 ± 17
[4] = dose 2,000 μg/kg, control 34 ± 4
[5] = dose 2,000 μg/kg, control 38 ± 6

## C[C@@H](O)[C@@H]1NC(=O)[C@H](Cc2ccccc2)NC(=O)[C@H]([C@@H](C)O)NC(=O)[C@H](CCCCN)NC(=O)[C@@H](Cc2c[nH]c3ccccc23)NC(=O)[C@H](Cc2ccccc2)NC(=O)[C@H](Cc2ccccc2)NC(=O)[C@@H](CCCNC(=N)N)NC(=O)[C@H](CCCNC(=N)N)NC(=O)[C@@H](N)CSSC[C@@H](C(=O)O)NC(=O)[C@H](CO)NC1=O [Ex. 2, L-Cysteinyl-L-arginyl-D-arginyl-L-phenylalanyl-L-phenylalanyl-D-tryptophyl- L-lysyl-L-threonyl-L-phenylalanyl-L-threonyl-L-seryl-L-cysteine cyclic (1→12)-disulfide tetraacetate (salt)] (H-CR[dR]FF[dW]KTFTSC-OH; disulfide 1-12)
Growth hormone [1]; dose 1,000 μg/kg, control 141 ± 14
  GH: 4 ± 3 ng/mL
insulin; dose 1,000 μg/kg, control 227 ± 19
  INS: 89 ± 8 µU/mL
glucagon; dose 1,000 μg/kg, control 61 ± 7
  GLUN: 44 ± 8 pg/mL
Growth hormone [2]; 2 hours, control 303 ± 53, p<0.001
  GH (duration of activity): 54 ± 11 ng/mL
Growth hormone [2]; 4 hours, control 73 ± 7
  GH (duration of activity): 83 ± 9 ng/mL

## C[C@@H](O)[C@@H]1NC(=O)[C@H](Cc2ccccc2)NC(=O)[C@H]([C@@H](C)O)NC(=O)[C@H](CCCCN)NC(=O)[C@@H](Cc2c[nH]c3ccccc23)NC(=O)[C@H](Cc2ccccc2)NC(=O)[C@H](Cc2ccccc2)NC(=O)[C@@H](CO)NC(=O)[C@H](CCCNC(=N)N)NC(=O)[C@@H](N)CSSC[C@@H](C(=O)O)NC(=O)[C@H](CO)NC1=O [Ex. 3, L-Cysteinyl-L-arginyl-D-seryl-L-phenylalanyl-L-phenylalanyl-D-tryptophyl-L- lysyl-L-threonyl-L-phenylalanyl-L-threonyl-L-seryl-L-cysteine cyclic (1→12)-disulfide triacetate (salt)] (H-CR[dS]FF[dW]KTFTSC-OH; disulfide 1-12)
Growth hormone [1]; [3]
  GH: 37 ± 9 ng/mL
insulin; [4]
  INS: 8 ± 1 μU/ml
glucagon; [5]
  GLUN: 26 ± 5 pg/mL
Growth hormone [2]; 2 hours, control 290 ± 64, p<0.02
  GH (duration of activity): 91 ± 29 ng/mL
Growth hormone [2]; 4 hours, control 133 ± 38, p<0.1 (not significant)
  GH (duration of activity): 57 ± 12 ng/mL

## C[C@@H](O)[C@@H]1NC(=O)[C@H](Cc2ccccc2)NC(=O)[C@H]([C@@H](C)O)NC(=O)[C@H](CCCCN)NC(=O)[C@@H](Cc2c[nH]c3ccccc23)NC(=O)[C@H](Cc2ccccc2)NC(=O)[C@H](Cc2ccccc2)NC(=O)[C@@H](Cc2c[nH]cn2)NC(=O)[C@H](CCCNC(=N)N)NC(=O)[C@@H](N)CSSC[C@@H](C(=O)O)NC(=O)[C@H](CO)NC1=O [Ex. 4, L-Cysteinyl-L-arginyl-D-histidyl-L-phenylalanyl-L-phenylalanyl-D-tryptophyl-L-lysyl-L-threonyl-L-phenylalanyl-L-threonyl-L-seryl-L-cysteine cyclic (1→12) disulfide tetra-acetate (salt)] (H-CR[dH]FF[dW]KTFTSC-OH; disulfide 1-12)
Growth hormone [1]; dose 500 μg/kg, control 119 ± 29
  GH: 6 ± 1 ng/mL
insulin; dose 500 μg/kg, control 280 ± 15
  INS: 127 ± 22 μU/ml
glucagon; dose 500 μg/kg, control 44 ± 6
  GLUN: 29 ± 5 pg/mL
Growth hormone [2]; 2 hours, control 82 ± 25, p<0.05
  GH (duration of activity): 24 ± 5 ng/mL
Growth hormone [2]; 4 hours, control 76 ± 28, p<0.1 (not significant)
  GH (duration of activity): 20 ± 7 ng/mL
Growth hormone [2]; 5 hours, control 171 ± 38, p<0.02
  GH (duration of activity): 54 ± 11 ng/mL
Growth hormone [2]; 6 hours, control 73 ± 10
  GH (duration of activity): 54 ± 13 ng/mL

## C[C@@H](O)[C@@H]1NC(=O)[C@H](Cc2ccccc2)NC(=O)[C@H]([C@@H](C)O)NC(=O)[C@H](CCCCN)NC(=O)[C@@H](Cc2c[nH]c3ccccc23)NC(=O)[C@H](Cc2ccccc2)NC(=O)[C@H](Cc2ccccc2)NC(=O)[C@@H](Cc2ccc(O)cc2)NC(=O)[C@H](CCCCN)NC(=O)[C@@H](N)CSSC[C@@H](C(=O)O)NC(=O)[C@H](CO)NC1=O [Ex. 5, L-Cysteinyl-L-lysyl-D-tyrosyl-L-phenylalanyl-L-phenylalanyl-D-tryptophyl-L- lysyl-L-threonyl-L-phenylalanyl-L-threonyl-L-seryl-L-cysteine cyclic (1→12) disulfide] (H-CK[dY]FF[dW]KTFTSC-OH; disulfide 1-12)
Growth hormone [2]; 2 hours, control 84 ± 17, p<0.01
  GH (duration of growth hormone suppression): 27 ± 5 ng/mL
Growth hormone [2]; 2 hours, second experiment, control 80 ± 12
  GH (duration of growth hormone suppression): 72 ± 21 ng/mL
Growth hormone [2]; 4 hours, control 84 ± 22, p<0.05
  GH (duration of growth hormone suppression): 33 ± 4 ng/mL
Growth hormone [2]; 5 hours, control (printed 2 hours) 141 ± 51
  GH (duration of growth hormone suppression): 113 ± 27 ng/mL

## C[C@@H](O)[C@@H]1NC(=O)[C@H](Cc2ccccc2)NC(=O)[C@H]([C@@H](C)O)NC(=O)[C@H](CCCCN)NC(=O)[C@@H](Cc2c[nH]c3ccccc23)NC(=O)[C@H](Cc2ccccc2)NC(=O)[C@H](Cc2ccccc2)NC(=O)[C@@H](CCCNC(=N)N)NC(=O)[C@H](CCCCN)NC(=O)[C@@H](N)CSSC[C@@H](C(=O)O)NC(=O)[C@H](CO)NC1=O [Ex. 6] (H-CK[dR]FF[dW]KTFTSC-OH; disulfide 1-12)
Growth hormone [1]; [3]
  GH: 34 ± 8 ng/mL
insulin; [4]
  INS: 5 ± 1 µU/mL
glucagon; [5]
  GLUN: 32 ± 5 pg/mL
Growth hormone [2]; 2 hours, control 148 ± 25, p<0.01
  GH (duration of activity): 53 ± 8 ng/mL
Growth hormone [2]; 4 hours, control 73 ± 24, p<0.1
  GH (duration of activity): 21 ± 4 ng/mL

## C[C@@H](O)[C@@H]1NC(=O)[C@H](CCCCN)NC(=O)[C@@H](Cc2c[nH]c3ccccc23)NC(=O)[C@H](Cc2ccccc2)NC(=O)[C@H](Cc2ccccc2)NC(=O)[C@@H](Cc2ccc(O)cc2)NC(=O)[C@H](CCCNC(=N)N)NC(=O)[C@@H](N)CSSC[C@H](C(=O)O)NC(=O)[C@H](CO)NC(=O)[C@H]([C@@H](C)O)NC(=O)[C@H](Cc2ccccc2)NC1=O [L-Cysteinyl-L-arginyl-D-tyrosyl-L-phenylalanyl-L-phenylalanyl-D-tryptophyl- L-lysyl-L-threonyl-L-phenylalanyl-L-threonyl-L-seryl-D-cysteine cyclic (1→12) disuflide] (H-CR[dY]FF[dW]KTFTS[dC]-OH; disulfide 1-12)
Growth hormone [1]; dose 3,000 μg/kg sc, control 176 ± 33
  GH: 17 ± 3 ng/mL
Growth hormone [1]; summary of rat data
  reduction of secretion of growth hormone, insulin and glucagon (in words): effective agent for reducing secretion of growth hormone, insulin, and glucagon
insulin; dose 100 μg/kg sc, control 43 ± 3
  INS: 7 ± 2 µU/mL
insulin; dose 3,000 μg/kg sc, control 340 ± 17
  INS: 48 ± 9 µU/mL
glucagon; dose 100 μg/kg sc, control 46 ± 6, p>0.05
  GLUN: 31 ± 4 pg/mL
glucagon; dose 3,000 μg/kg sc, control 48 ± 5, p<0.01
  GLUN: 23 ± 4 pg/mL
Growth hormone [2]; 500 μg/kg SC, 6 hours after injection, control 103 ± 17
  Plasma GH: 152 ± 27 ng/mL
Growth hormone [2]; 1,000 μg/kg SC, 2 hours after injection, control 542 ± 145, p<0.01
  Plasma GH: 30 ± 5 ng/mL
Growth hormone [2]; 1,000 μg/kg SC, 4 hours after injection, control 107 ± 25, p<0.01
  Plasma GH: 37 ± 6 ng/mL
Growth hormone [2]; 1,000 μg/kg SC, 6 hours after injection, control 103 ± 17
  Plasma GH: 114 ± 22 ng/mL
Growth hormone [2]; summary of rat data
  duration of growth hormone suppression (in words): very prolonged activity in suppressing growth hormone blood levels

## C[C@H](N)C(=O)NCC(=O)N[C@H]1CSSC[C@@H](C(=O)O)NC(=O)[C@H](CO)NC(=O)[C@H]([C@@H](C)O)NC(=O)[C@H](Cc2ccccc2)NC(=O)[C@H]([C@@H](C)O)NC(=O)[C@H](CCCCN)NC(=O)[C@H](Cc2c[nH]c3ccccc23)NC(=O)[C@H](Cc2ccccc2)NC(=O)[C@H](Cc2ccccc2)NC(=O)[C@H](CC(N)=O)NC(=O)[C@H](CCCCN)NC1=O [SRIF, reference compound]
insulin; dose 200 μg/kg sc, control 43 ± 3
  INS: 31 ± 2 µU/mL
glucagon; dose 200 μg/kg sc, control 46 ± 6, p<0.01
  GLUN: 21 ± 4 pg/mL
